According to PubChem BioAssay AID1259408 (Genetic Toxicology Data Bank (GENE-TOX), 2018):
Active and inactive are the calls of the source. How the calls were made is not given here.

Test system: GENE-TOX genotoxicity assays, various organisms and cells
Test: GENE-TOX mutagenicity studies
[1] = Species/Cell Type: Saccharomyces cerevisiae, Assay Type: Reverse gene mutation, Assay Code: YERT, Evaluation Type: Evaluation A (Pre-1980)
[2] = Species/Cell Type: Salmonella typhimurium (one or more of the five standard strains: TA98, TA100, TA1535, TA1537, and TA1538), Assay Type: Histidine reverse gene mutation, Ames assay, Assay Code: SALT, Evaluation Type: Evaluation A (Pre-1980)
[3] = Species/Cell Type: Salmonella typhimurium (one or more of the five standard strains: TA98, TA100, TA1535, TA1537, and TA1538), Assay Type: Histidine reverse gene mutation, Ames assay, Assay Code: SAL-, Evaluation Type: Evaluation A (Pre-1980)
[4] = Species/Cell Type: Salmonella typhimurium (one or more of the five standard strains: TA98, TA100, TA1535, TA1537, and TA1538), Assay Type: Histidine reverse gene mutation, Ames assay, Assay Code: SAL+*, Activation: With metabolic activation, Evaluation Type: Evaluation A (Pre-1980)

In the case of C=CCNC(=O)OC1(SC)C(=O)c2ccccc2C1=O, the mutagenic call (Species/Cell Type: Salmonella typhimurium, Assay Type: Forward and reverse gene mutation, host-mediated assay, Assay Code: HMAT, Evaluation Type: Evaluation A (Pre-1980)) is reported as “no conclusion”.

For COc1ccccc1N1CCN(c2ccc([N+](=O)[O-])c3no[n+]([O-])c23)CC1, the mutagenic call (Species/Cell Type: Salmonella typhimurium (one or more of the five standard strains: TA98, TA100, TA1535, TA1537, and TA1538), Assay Type: Histidine reverse gene mutation, Ames assay, Assay Code: SAL+, Evaluation Type: Evaluation A (Pre-1980)) was “active; positive”.

In the case of CCCOc1ccc(CC(=O)NN)cc1CN(CC)CC, the mutagenic call [1] is reported as “no conclusion”.

With CN(C)c1ccccc1N=Nc1ccccc1 the mutagenic call (Species/Cell Type: Salmonella typhimurium, Assay Type: Forward and reverse gene mutation, host-mediated assay, Assay Code: HMA+, Evaluation Type: Evaluation A (Pre-1980)) was “active; positive”.

With CC(=O)OC[C@H]1O[C@@H](Oc2ccc(O)c3c2C(=O)c2ccccc2C3=O)[C@H](OC(C)=O)[C@@H](OC(C)=O)[C@@H]1OC(C)=O the mutagenic call [2] was “no conclusion”.

c1ccc2cnccc2c1 was tested, and the mutagenic call [2] was “no conclusion”.

With CC(C)CCC[C@@H](C)[C@H]1CC[C@H]2[C@@H]3C[C@@H]4O[C@@]45C[C@@H](O)CC[C@]5(C)[C@H]3CC[C@]12C the mutagenic call (Species/Cell Type: Syrian hamster embryo (SHE) cells, Assay Type: Cell transformation, clonal assay, Assay Code: CTC+, Evaluation Type: Evaluation A (Pre-1980)) was “active; positive”.

CN(C)c1ccc(C(=N)c2ccc(N(C)C)cc2)cc1 was tested, and the mutagenic call (Species/Cell Type: Escherichia coli polA (W3119 vs P3478), Assay Type: Rec-assay, DNA effects (bacterial DNA repair), Assay Code: RE1+, Evaluation Type: Evaluation A (Pre-1980)) was “active; positive”, the mutagenic call (Species/Cell Type: Mammalian polychromatic erythrocytes, Assay Type: Micronucleus test, chromosome aberrations, Assay Code: MNTT, Evaluation Type: Evaluation A (Pre-1980)) was “no conclusion” and the call (Species/Cell Type: Nonhuman, Assay Type: In vivo carcinogenicity studies, Assay Code: CCG+L, Evaluation Type: Evaluation A (Pre-1980)) was “active; positive”. For the same compound, the mutagenic call (Species/Cell Type: Nonhuman, Assay Type: Sister-chromatid exchange (SCE) in vitro, Assay Code: SC2+*, Activation: With metabolic activation, Evaluation Type: Evaluation B (Post-1980)) was “active; positive”, the mutagenic call (Species/Cell Type: Nonhuman, Assay Type: Sister-chromatid exchange (SCE) in vivo, Assay Code: SC3+, Evaluation Type: Evaluation B (Post-1980)) was “active; positive” and the mutagenic call (Species/Cell Type: Saccharomyces cerevisiae, Assay Type: Mitotic recombination or gene conversion, Assay Code: YEH+, Evaluation Type: Evaluation A (Pre-1980)) was “active; positive”. For the same compound, the mutagenic call [3] was “inactive; negative” and the mutagenic call (Species/Cell Type: Syrian hamster embryo (SHE) cells, Assay Type: Cell transformation, clonal assay, Assay Code: CTCT, Evaluation Type: Evaluation A (Pre-1980)) was “no conclusion”.

In the case of NC(N)=NS(=O)(=O)c1ccc(N)cc1, the mutagenic call [3] is reported as “inactive; negative”.

For CC1C=Cc2c1ccc1c2ccc2ccccc21 (centres undefined), the mutagenic call [4] was “active; positive”.

For Cc1cc(Cl)ccc1OC(C)C(=O)O (centres undefined), the mutagenic call (Species/Cell Type: Saccharomyces cerevisiae, Assay Type: Mitotic recombination or gene conversion, Assay Code: YEC+, Evaluation Type: Evaluation A (Pre-1980)) was “active; positive”.

For O=S(=O)(Cl)c1cccc2cccnc12, the mutagenic call [2] was “no conclusion”.

In the case of CCN(CC)Cc1cc(Br)ccc1OCC(=O)N/N=C\c1ccccc1, the mutagenic call [1] is reported as “no conclusion”.

For O=[N+]([O-])c1cnc2ccccc2c1, the mutagenic call (Species/Cell Type: Neurospora crassa, Assay Type: Aneuploidy, chromosome aberrations, Assay Code: NEN-, Evaluation Type: Evaluation A (Pre-1980)) was “inactive; negative”.

In the case of CC(C)c1ccccc1, the mutagenic call (Species/Cell Type: Saccharomyces cerevisiae, Assay Type: Mitotic recombination or gene conversion, Assay Code: YEH-, Evaluation Type: Evaluation A (Pre-1980)) is reported as “inactive; negative” and the mutagenic call [3] is reported as “inactive; negative”.

In the case of Cc1cc(C2(c3ccc(O)c(C)c3)OC(=O)c3ccccc32)ccc1O, the mutagenic call (Species/Cell Type: Allium cepa, Assay Type: Chromosome aberrations, Assay Code: ALC+, Evaluation Type: Evaluation A (Pre-1980)) is reported as “active; positive”.

With O=C1c2ccccc2C(=O)c2c1cc(O[C@H]1O[C@H](CO[C@@H]3OC[C@@H](O)[C@H](O)[C@H]3O)[C@@H](O)[C@H](O)[C@H]1O)c(CO)c2O the mutagenic call [4] was “active; positive”.

CN(N=O)C(=O)Oc1ccccc1Cl was tested, and the mutagenic call (Species/Cell Type: Bacillus subtilis (H17 vs M45T), Assay Type: Rec-assay, spot test, DNA effects (bacterial DNA repair), Assay Code: REX+, Evaluation Type: Evaluation A (Pre-1980)) was “active; positive” and the mutagenic call (Species/Cell Type: Escherichia coli WP2, Assay Type: Tryptophan reverse gene mutation, Assay Code: WP2+, Evaluation Type: Evaluation A (Pre-1980)) was “active; positive”.

In the case of COc1cc([C@@H]2c3cc4c(cc3[C@@H](O[C@@H]3O[C@H](CO)[C@@H](O)[C@H](O)[C@H]3O)[C@H]3COC(=O)[C@H]23)OCO4)cc(OC)c1O, the mutagenic call (Species/Cell Type: Chinese hamster ovary (CHO) cells, Assay Type: Forward gene mutation at the HPRT locus, Assay Code: CHO+, Evaluation Type: Evaluation B (Post-1980)) is reported as “active; positive”.

For CC(=O)Nc1ccc([C@@H]2O[C@@H]2c2ccccc2)cc1, the mutagenic call [2] was “no conclusion”.
